Patent publication US9029384B2, “Phosphatidylinositol 3-kinase inhibitors” (Gilead Calistoga LLC, priority 2012, dated 2015)
pEC50, pIC50: −log10 of the molar value.

Legend:
basophils = assay: Basophil activation in human whole blood (Flow2 CAST kit, CD63 positive cells); assay type: cell-based; details: Homo sapiens, basophils activated with anti-FcεRI mAb or fMLP, geometric mean
Description: Effect on basophil activation was measured in human whole blood using the Flow2 CAST® kit (Buhlmann Laboratories AG, Baselstrasse, Switzerland) following the protocol provided by the manufacturer with minor modifications. Human whole blood was collected into K2-EDTA venipuncture tubes. Whole blood samples were treated with either DMSO (0.3% final) or a serial dilution of compounds in DMSO for 60 minutes at 37° C. Basophils were then activated either with anti-FcεRI mAb or with fMLP. To activate basophils using the anti-FcεRI mAb; 50 μl of whole blood was mixed with 110 μl of stimulation buffer (B-BAT-STB) and 20 μl of anti-FcεRI (B-BAT-STCON). To activate basophils with fMLP; 50 μl of whole blood was mixed with 80 μl of stimulation buffer (B-BAT-STB) and 50 μl of fMLP (B-CCR-FMLP). Stimulation buffer was used as a negative control. 20 μl of the staining reagent (combination of anti-human CD63-FITC and anti-human CCR3-PE mAbs) was then added to each tube. […] Subsequently, erythrocytes were lysed and fixed by the addition of 2 ml of lysing solution (B-BAT-LYR) for 10 min at room temperature. Cells were pelleted by centrifugation at 1200 rpm for 10 min at room temperature in a swing-out rotor. Supernatant was aspirated and cell pellet resuspended in 400 μl of wash buffer. Flow cytometric analysis of the basophil activation was performed on a FC500MPL flow cytometer (Beckman Coulter Inc., Fullerton, Calif.). CCR3-staining and side scatter were applied to gate at least 200 basophils that expressed a high density of CCR3. The percent CD63 positive cells within the gated basophil population were determined in different treatment groups and normalized to the vehicle control (0.3% DMSO) with anti-FcεRI mAb of fMLP stimulus as 100%. Final compound concentration was adjusted to correct for dilution effect of added reagents. The EC50 values were calculated from the analysis of the dose-response curves to a four-parameter equation. All EC50 values represent geometric mean values and are reported in units of nM.

PI3Kδ = target: T1, PI3Kδ (Homo sapiens, UniProt O00329); assay: Enzymatic activity of PI3K isoforms, TR-FRET assay (PIP3 formation); assay type: biochemical; details: PI3Kδ; TR-FRET, 2×Km ATP, 10 μM PIP2; read-out: IC50
T1 construct: made in house
Excerpt: Enzymatic Activity of PI3K Isoforms
The TR-FRET assay was used to monitor formation of the product 3,4,5-inositol triphosphate molecule (PIP3) as it competed with fluorescently labeled PIP3 for binding to the GRP-1 pleckstrin homology domain protein. An increase in […] product results in a decrease in TR-FRET signal as the labeled fluorophore is displaced from the GRP-1 protein binding site.
Class I PI3K isoforms were expressed and purified as heterodimeric recombinant proteins. All assay reagents and buffers for the TR-FRET assay were purchased from Millipore. […] After an assay reaction time of 30 minutes at 25° C., reactions were terminated with a final concentration of 10 mM EDTA, 10 nM labeled-PIP3, and 35 nM Europium labeled GRP-1 detector protein before reading TR-FRET on an Envision plate reader (Ex: 340 nm; Em: 615/665 nm; 100 μs delay and 500 μs read window).
Data are normalized based on a positive (1 uM wortmanin) and negative (DMSO) controls. The α, β, δ, and γ IC50 values were calculated from the fit of the dose-response curves to a four-parameter equation. IC50 are reported in units of nM.
IC50 values were obtained for all PI3K isoforms (α, β, δ, and γ), and Table 2 summarizes the IC50 data collected for PI3Kδ in this Example B1.

T1 sequence (O00329 whole entry, canonical isoform): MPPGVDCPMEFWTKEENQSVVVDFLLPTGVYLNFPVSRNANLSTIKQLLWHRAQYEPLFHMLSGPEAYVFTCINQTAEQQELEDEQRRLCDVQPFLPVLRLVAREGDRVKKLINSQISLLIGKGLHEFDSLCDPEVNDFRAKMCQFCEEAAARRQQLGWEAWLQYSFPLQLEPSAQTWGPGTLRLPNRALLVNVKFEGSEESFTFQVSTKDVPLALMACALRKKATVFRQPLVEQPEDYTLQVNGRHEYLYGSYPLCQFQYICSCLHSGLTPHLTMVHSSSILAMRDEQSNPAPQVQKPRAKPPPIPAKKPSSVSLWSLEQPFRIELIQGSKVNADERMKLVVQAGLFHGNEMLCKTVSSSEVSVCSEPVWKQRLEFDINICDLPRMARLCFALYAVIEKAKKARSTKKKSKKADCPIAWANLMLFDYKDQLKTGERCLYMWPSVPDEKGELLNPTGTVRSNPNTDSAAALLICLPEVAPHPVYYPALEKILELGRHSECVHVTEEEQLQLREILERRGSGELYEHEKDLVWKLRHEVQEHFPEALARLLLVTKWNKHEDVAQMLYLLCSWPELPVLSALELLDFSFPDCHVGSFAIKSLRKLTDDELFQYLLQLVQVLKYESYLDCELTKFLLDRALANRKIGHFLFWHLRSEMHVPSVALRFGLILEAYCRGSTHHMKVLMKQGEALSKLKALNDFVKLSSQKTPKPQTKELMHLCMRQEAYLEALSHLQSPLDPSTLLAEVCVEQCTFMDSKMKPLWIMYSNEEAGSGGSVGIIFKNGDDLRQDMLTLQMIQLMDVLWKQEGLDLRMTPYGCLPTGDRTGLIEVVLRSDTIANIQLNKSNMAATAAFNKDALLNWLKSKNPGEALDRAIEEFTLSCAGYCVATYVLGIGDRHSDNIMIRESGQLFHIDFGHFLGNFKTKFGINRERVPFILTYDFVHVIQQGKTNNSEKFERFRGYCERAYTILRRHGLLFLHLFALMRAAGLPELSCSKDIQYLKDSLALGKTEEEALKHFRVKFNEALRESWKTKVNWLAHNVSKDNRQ
T1 sequence (P27986 whole entry partner, canonical isoform): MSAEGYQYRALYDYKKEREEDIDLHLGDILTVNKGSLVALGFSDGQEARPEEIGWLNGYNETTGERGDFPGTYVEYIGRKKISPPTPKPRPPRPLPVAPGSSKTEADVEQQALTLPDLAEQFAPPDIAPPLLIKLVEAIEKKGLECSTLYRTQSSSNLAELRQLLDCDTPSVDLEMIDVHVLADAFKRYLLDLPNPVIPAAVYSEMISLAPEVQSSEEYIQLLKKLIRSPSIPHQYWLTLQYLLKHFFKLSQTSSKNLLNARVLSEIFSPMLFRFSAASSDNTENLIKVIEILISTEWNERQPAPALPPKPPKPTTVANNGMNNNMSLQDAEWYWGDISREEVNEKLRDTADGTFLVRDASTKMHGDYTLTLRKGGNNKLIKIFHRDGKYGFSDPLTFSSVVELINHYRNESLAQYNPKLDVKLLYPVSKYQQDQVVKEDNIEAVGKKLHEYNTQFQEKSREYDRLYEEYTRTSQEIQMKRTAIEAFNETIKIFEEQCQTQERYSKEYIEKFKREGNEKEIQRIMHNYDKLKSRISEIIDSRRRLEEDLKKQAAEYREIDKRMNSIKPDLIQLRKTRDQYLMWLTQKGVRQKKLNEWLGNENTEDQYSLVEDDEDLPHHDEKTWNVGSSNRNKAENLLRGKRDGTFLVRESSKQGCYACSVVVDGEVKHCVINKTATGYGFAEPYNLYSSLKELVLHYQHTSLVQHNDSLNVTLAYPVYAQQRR

| SMILES | pEC50 (basophils) | pIC50 (PI3Kδ) |
| --- | --- | --- |
| CC(Nc1nc(N)nc(N)c1C#N)c1nc2cccc(O)c2c(=O)n1-c1ccccc1 (single isomer, unassigned) [Compound 2a] | 8.00 to 9.00 | > 9.00 |
| Cc1cccc2c(=O)n(-c3ccccc3)c(C(C)Nc3nc(N)nc(N)c3C#N)nc12 (single isomer, unassigned) [Compound 3a] | 7.30 to 8.00 | 8.00 to 9.00 |
| CCC(Nc1nc(N)nc(N)c1C#N)c1nc2ccc(F)c(F)c2c(=O)n1-c1cc(F)cc(F)c1 (single isomer, unassigned) [Compound 30a] |  | 7.30 to 8.00 |
| CC(Nc1nc(N)nc(N)c1C#N)c1nc2cccc(F)c2c(=O)n1-c1cc(F)cc(C#N)c1 (single isomer, unassigned) [Compound 32a] |  | 7.30 to 8.00 |
| CC(Nc1nc(N)nc(N)c1C#N)c1nc2cccc(F)c2c(=O)n1-c1cc(F)cc(C(F)(F)F)c1 (single isomer, unassigned) [Compound 33a] |  | < 7.30 |
| CC(Nc1nc(N)nc(N)c1C#N)c1nc2c(C(F)(F)F)cccc2c(=O)n1-c1cc(F)cc(F)c1 (single isomer, unassigned) [Compound 34a] |  | < 7.30 |
| Cc1cccc2c(=O)n(-c3cccc(C(F)(F)F)c3)c(C(C)Nc3nc(N)nc(N)c3C#N)nc12 (single isomer, unassigned) [Compound 39a] |  | 7.30 to 8.00 |
| CCC(Nc1nc(N)nc(N)c1C#N)c1nc2cccc(F)c2c(=O)n1-c1cccc(C(F)(F)F)c1 (single isomer, unassigned) [Compound 46a] |  | 7.30 to 8.00 |
| CC(Nc1nc(N)nc(N)c1C#N)c1nc2c(C(F)F)cccc2c(=O)n1-c1cc(F)cc(F)c1 (single isomer, unassigned) [Compound 57a] |  | 7.30 to 8.00 |
| CCC(Nc1nc(N)nc(N)c1C#N)c1nc2cccc(F)c2c(=O)n1-c1cc(F)cc(C(F)F)c1 (single isomer, unassigned) [Compound 65a] |  | 7.30 to 8.00 |
| COc1cccc2c(=O)n(-c3cc(F)cc(F)c3)c(C(C)Nc3nc(N)nc(N)c3C#N)nc12 (single isomer, unassigned) [Compound 68a] |  | < 7.30 |
| CCC(Nc1nc(N)nc(N)c1C#N)c1nc2c(F)cc(F)cc2c(=O)n1-c1cc(F)cc(F)c1 (single isomer, unassigned) [Compound 69a] |  | 7.30 to 8.00 |
| CC(Nc1nc(N)nc(N)c1C#N)c1nc2cc(F)c(F)cc2c(=O)n1-c1cc(F)cc(F)c1 (single isomer, unassigned) [Compound 79a] |  | 7.30 to 8.00 |
| Cc1ccc(F)c2c(=O)n(-c3cc(F)cc(C#N)c3)c(C(C)Nc3nc(N)nc(N)c3C#N)nc12 (single isomer, unassigned) [Compound 83a] |  | 7.30 to 8.00 |
| CC(Nc1nc(N)nc(N)c1C#N)c1nc2ccc(Cl)c(F)c2c(=O)n1-c1cc(F)cc(F)c1 (single isomer, unassigned) [Compound 85a] |  | < 7.30 |
| CCC(Nc1nc(N)nc(N)c1C#N)c1nc2ccc(Cl)c(F)c2c(=O)n1-c1cc(F)cc(F)c1 (single isomer, unassigned) [Compound 86a] |  | < 7.30 |
| CC(Nc1nc(N)nc(N)c1C#N)c1nc2cccc(Cl)c2c(=O)n1-c1cc(C#N)cc(C#N)c1 (single isomer, unassigned) [Compound 87a] |  | < 7.30 |
| CC(Nc1nc(N)nc(N)c1C#N)c1nc2cccc(F)c2c(=O)n1-c1cc(C(F)(F)F)cc(C(F)(F)F)c1 (single isomer, unassigned) [Compound 88a] |  | < 7.30 |
| CC(Nc1nc(N)nc(N)c1S(C)(=O)=O)c1nc2cccc(Cl)c2c(=O)n1-c1cc(F)cc(F)c1 (single isomer, unassigned) [Compound 94a] |  | < 7.30 |
| CCc1cccc2c(=O)n(-c3cc(F)cc(F)c3)c(C(C)Nc3nc(N)nc(N)c3C#N)nc12 (single isomer, unassigned) [Compound 103a] |  | 7.30 to 8.00 |

| SMILES | pEC50 (basophils) | pIC50 (PI3Kδ) |
| --- | --- | --- |
| CCC(Nc1nc(N)nc(N)c1Cl)c1nc2cccc(F)c2c(=O)n1-c1cc(F)cc(F)c1 (single isomer, unassigned) [Compound 105a] |  | < 7.30 |
| COc1cccc(-n2c(C(C)Nc3nc(N)nc(N)c3C#N)nc3cccc(Cl)c3c2=O)c1C (single isomer, unassigned) [Compound 109a-1] |  | 7.30 to 8.00 |
| COc1cc(F)cc(-n2c(C(C)Nc3nc(N)nc(N)c3C#N)nc3cccc(Cl)c3c2=O)c1C (single isomer, unassigned) [Compound 110a-1] |  | < 7.30 |
| COc1cc(F)cc(-n2c(C(C)Nc3nc(N)nc(N)c3C#N)nc3cccc(Cl)c3c2=O)c1C (single isomer, unassigned) [Compound 110a-2] |  | 8.00 to 9.00 |
| CC(Nc1nc(N)nc(N)c1C#N)c1nc2cccc(C#N)c2c(=O)n1-c1cc(F)cc(C#N)c1 (single isomer, unassigned) [Compound 113a] |  | < 7.30 |
| CC(Nc1nc(N)nc(N)c1C#N)c1nc2cccc(F)c2c(=O)n1-c1cc(Cl)cc(C(F)F)c1 (single isomer, unassigned) [Compound 114a] |  | < 7.30 |
| CC(Nc1nc(N)nc(N)c1C#N)c1nc2cccc(F)c2c(=O)n1-c1cc(C(F)F)cc(C(F)F)c1 (single isomer, unassigned) [Compound 118a] |  | < 7.30 |
| CC(Nc1nc(N)nc(N)c1C#N)c1nc2cccc(Br)c2c(=O)n1-c1cccc(F)c1 (single isomer, unassigned) [Compound 130a] |  | > 9.00 |
| N#Cc1c(N)nc(N)nc1NC(CC(F)(F)F)c1nc2ccc(F)cc2c(=O)n1-c1ccccc1 (single isomer, unassigned) [Compound 132a] |  | < 7.30 |
| N#Cc1c(N)nc(N)nc1NC(CC(F)(F)F)c1nc2ccc(F)cc2c(=O)n1-c1cc(F)cc(F)c1 (single isomer, unassigned) [Compound 133a] |  | < 7.30 |
| CC(Nc1nc(N)nc(N)c1C#N)c1nc2cccc(F)c2c(=O)n1-c1cc(C(F)F)cc(C(F)F)c1 (single isomer, unassigned) [Compound 136a] |  | < 7.30 |
| CC(Nc1nc(N)nc(N)c1C#N)c1nc2cccc(C#N)c2c(=O)n1-c1cc(F)cc(C(F)F)c1 (single isomer, unassigned) [Compound 138a] |  | 7.30 to 8.00 |
| CC(Nc1nc(N)nc(N)c1C#N)c1nc2ccc(C#N)cc2c(=O)n1-c1ccccc1 (single isomer, unassigned) [Compound 159a] |  | < 7.30 |
| CC(Nc1nc(N)nc(N)c1C#N)c1nc2cccc(C(=O)O)c2c(=O)n1-c1ccccc1 (single isomer, unassigned) [Compound 162a, 2-(1-((2,6-diamino-5-cyanopyrimidin-4-yl)amino)ethyl)-4-oxo-3-phenyl-3,4-dihydroquinazoline-5-carboxylic acid] |  | < 7.30 |
| N#Cc1c(N)nc(N)nc1NC(CC(F)(F)F)c1nc2cccc(Cl)c2c(=O)n1-c1cc(F)cc(F)c1 (single isomer, unassigned) [Compound 165a] |  | < 7.30 |
| N#Cc1c(N)nc(N)nc1NC(CC(F)(F)F)c1nc2cccc(F)c2c(=O)n1-c1cc(F)cc(F)c1 (single isomer, unassigned) [Compound 166a] |  | < 7.30 |
| Cc1c(-n2c(C(C)Nc3nc(N)nc(N)c3C#N)nc3cccc(Cl)c3c2=O)ccc(F)c1F (single isomer, unassigned) [Compound 204a-1] |  | 7.30 to 8.00 |
| Cc1c(-n2c(C(C)Nc3nc(N)nc(N)c3C#N)nc3cccc(Cl)c3c2=O)ccc(F)c1F (single isomer, unassigned) [Compound 204a-2] |  | 8.00 to 9.00 |
| N#Cc1c(N)nc(N)nc1NCc1nc2cc(F)c(F)cc2c(=O)n1-c1cc(F)cc(F)c1 [Compound 80, 2,4-diamino-6-((3-(3,5-difluorophenyl)-6,7-difluoro-4-oxo-3,4-dihydroquinazolin-2-yl)methylamino)pyrimidine-5-carbonitrile] |  | < 7.30 |
| N#Cc1cccc(-n2c(CNc3nc(N)nc(N)c3C#N)nc3c(Cl)cccc3c2=O)c1 [Compound 84, 2,4-diamino-6-((8-chloro-3-(3-cyanophenyl)-4-oxo-3,4-dihydroquinazolin-2-yl)methylamino)pyrimidine-5-carbonitrile] |  | < 7.30 |
